# According to patent US20240317725A1, “LPA1 SMALL MOLECULE ANTAGONIST” (TUOJIE BIOTECH (SHANGHAI) CO., LTD., priority 2021, published 2024):
# Molecular target: T1, human lysophosphatidic acid receptor 1 (LPAR1) (Homo sapiens, UniProt Q92633)
# T1 construct: host or cells: CHO-K1 (Chinese hamster ovary K1) cells, CHO-K1/LPA1R, kept under hygromycin B selection
# Assay: FLIPR test of antagonist properties: inhibition of LPA-induced intracellular calcium elevation in CHO-K1 cells expressing hLPAR1
# Assay type: cell-based
# Details: FLIPR calcium assay, CHO-K1/LPA1R cells, LPA at EC80
# Protocol: The antagonist properties of the compounds of the present disclosure were tested using the FLIPR (fluorometric imaging plate reader) method. The compounds are inhibitors of intracellular calcium elevation induced by activation of hLPARI (human lysophosphatidic acid receptor 1) expressed in CHO-K1 cells (Chinese hamster ovary K1 cells, HDB).
# 2.1. Reaction buffer: HBSS+20 mM HEPES+0.1% fatty acid-free BSA+0.001% F-127
# 2.2. 50×Red dye: (a red dye for blocking background signals in cells) prepared by: weighing out 4 g of tartrazine and 10.2 g of acid red and dissolving them in 100 mL of H2O.
# 2.3. Fluo-8 staining mixture: 4 mL of reaction buffer, 32 μL of fluo-8, 320 μL of 50×Red dye, and 40 μL of probenecid.
# 3.1. LPA: dissolved in DPBS (containing 0.1% fatty acid-free BSA) to prepare a 0.8 μM stock solution, and the solution was aliquoted and stored at −20° C.
# 3.2. Test compound preparation: The test compounds were dissolved in DMSO to prepare 10 mM stock solutions, and the solutions were stored at −20° C. In the experiment, the compounds were first gradient-diluted with DMSO (initial concentration of 50 μM, 3-fold dilution, 10 points) to prepare 200×compound solutions. The compound solutions were then diluted with reaction buffer to give 5×compound solutions, and the solutions were transferred to a 384-well plate (Cat. No. 6008590) using Bravo.
# 4.1. CHO-K1/LPA1R cells were cultured in a cell culture medium (F-12+10% FBS+400 μg/mL hygromycin B).
# 4.2. When the cell confluence reached 80%, the cells were digested with 0.25% pancreatin.
# 4.3. When the cells became round, the digestion was stopped with the medium F-12 (10% FBS), and the cells were counted. Then the cell culture was diluted with F-12 (10% FBS) to give a cell suspension with a density of 6.7×10^5 cells/mL.
# 4.4. The cell suspension was added to a 384-well black cell culture plate at 30 µL/well using a Multidrop auto-dispenser, and the plate was incubated in a 37° C., 5% CO2 incubator for 20-24 h. The medium was changed to a serum-free F-12 medium, and the cells were starved for 24 h.
# 4.5. Dose experiment for testing LPA. Gradient dilutions of 6×LPA solution (initial concentration of 60 μM, 3-fold dilution, 10 points) were prepared with reaction buffer. The medium in the 384-well black cell culture plate was discarded and changed to reaction buffer. 10 μL of 5% DMSO reaction buffer was added, and 10 μL of Fluo-8 staining mixture was then added. The plate was incubated in the dark in a 37° C., 5% CO2 incubator for 0.5 h.
# 4.6. FLIPR was correspondingly programmed, the 6×LPA gradient solutions were added, and readings were taken. Two-minute data were collected.
# 4.7. A reaction curve was obtained from the numerical values of LPA, and the concentration of LPA at EC80 was calculated. A 6×LPA solution was prepared in a 384-well plate (Cat. No. 6008590), and HPE and ZPE were added to corresponding wells. HPE (one hundred per cent effect) was 60 μM LPA, and ZPE (zero per cent effect) was reaction buffer.
# 4.8. Testing of compounds. The medium in the 384-well black cell culture plate was discarded and changed to reaction buffer. 10 μL of 5×compound solution was transferred using Bravo, and then 10 μL of Fluo-8 staining mixture was added immediately. The plate was incubated in the dark in a 37° C., 5% CO2 incubator for 0.5 h.
# 4.9. FLIPR was correspondingly programmed, the 6×LPA solution was added, and readings were taken. Two-minute data were collected.
# 4.10. Finally, the output fluorescence counts were analyzed, and IC50 was calculated for the compounds.
# T1 sequence (Q92633 whole entry): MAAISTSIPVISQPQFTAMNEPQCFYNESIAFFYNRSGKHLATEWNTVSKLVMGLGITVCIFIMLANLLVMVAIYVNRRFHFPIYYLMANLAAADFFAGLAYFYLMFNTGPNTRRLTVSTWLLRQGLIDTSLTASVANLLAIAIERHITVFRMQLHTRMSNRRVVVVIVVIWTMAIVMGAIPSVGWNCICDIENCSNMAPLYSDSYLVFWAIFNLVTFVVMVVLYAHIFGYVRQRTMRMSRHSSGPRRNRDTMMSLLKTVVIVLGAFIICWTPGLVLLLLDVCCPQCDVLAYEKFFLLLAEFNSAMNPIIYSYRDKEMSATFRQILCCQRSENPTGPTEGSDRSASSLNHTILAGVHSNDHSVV
row,Compound,IC50
1,"Cc1nc(-c2nnn(C)c2COc2nccc(C(F)(F)F)n2)ccc1OC1CC2CCC(C(=O)O)C2C1 (single isomer, unassigned) [Compound 1-P1, 5-((2-Methyl-6-(1-methyl-5-(((4-(trifluoromethyl)pyrimidin-2-yl)oxy)methyl)-1H-1,2,3-triazol-4-yl)pyridin-3-yl)oxy)octahydropentalene-1-carboxylic acid]",0.0133 µM
2,"Cc1nc(-c2nnn(C)c2COc2nccc(C(F)(F)F)n2)ccc1OC1CC2CCC(C(=O)O)C2C1 (single isomer, unassigned) [Compound 1-P2, 5-((2-Methyl-6-(1-methyl-5-(((4-(trifluoromethyl)pyrimidin-2-yl)oxy)methyl)-1H-1,2,3-triazol-4-yl)pyridin-3-yl)oxy)octahydropentalene-1-carboxylic acid]",0.659 µM
3,"Cc1nc(-c2nnn(C)c2COc2noc(C3CC3)n2)ccc1OC1CC2CCC(C(=O)O)C2C1 (single isomer, unassigned) [Compound 2-P1, 5-((6-(5-(((5-Cyclopropyl-1,2,4-oxadiazol-3-yl)oxy)methyl)-1-methyl-1H-1,2,3-triazol-4-yl)-2-methylpyridin-3-yl)oxy)octahydropentalene-1-carboxylic acid]",0.026 µM
4,"Cc1nc(-c2nnn(C)c2COc2noc(C3CC3)n2)ccc1OC1CC2CCC(C(=O)O)C2C1 (single isomer, unassigned) [Compound 2-P2, 5-((6-(5-(((5-Cyclopropyl-1,2,4-oxadiazol-3-yl)oxy)methyl)-1-methyl-1H-1,2,3-triazol-4-yl)-2-methylpyridin-3-yl)oxy)octahydropentalene-1-carboxylic acid]",2.69 µM
5,"COCc1ccnc(OCc2c(-c3ccc(OC4CC5CCC(C(=O)O)C5C4)c(C)n3)nnn2C)n1 (single isomer, unassigned) [Compound 3-P1, 5-((6-(5-(((4-(Methoxymethyl)pyrimidin-2-yl)oxy)methyl)-1-methyl-1H-1,2,3-triazol-4-yl)-2-methylpyridin-3-yl)oxy)octahydropentalene-1-carboxylic acid]",0.0087 µM
6,"COCc1ccnc(OCc2c(-c3ccc(OC4CC5CCC(C(=O)O)C5C4)c(C)n3)nnn2C)n1 (single isomer, unassigned) [Compound 3-P2, 5-((6-(5-(((4-(Methoxymethyl)pyrimidin-2-yl)oxy)methyl)-1-methyl-1H-1,2,3-triazol-4-yl)-2-methylpyridin-3-yl)oxy)octahydropentalene-1-carboxylic acid]",1.38 µM
7,"CCc1cc(OCc2c(-c3ccc(OC4CC5CCC(C(=O)O)C5C4)c(C)n3)nnn2C)ncn1 (single isomer, unassigned) [Compound 4-P1, 5-((6-(5-(((6-Ethylpyrimidin-4-yl)oxy)methyl)-1-methyl-1H-1,2,3-triazol-4-yl)-2-methylpyridin-3-yl)oxy)octahydropentalene-1-carboxylic acid]",0.746 µM
8,"CCc1cc(OCc2c(-c3ccc(OC4CC5CCC(C(=O)O)C5C4)c(C)n3)nnn2C)ncn1 (single isomer, unassigned) [Compound 4-P2, 5-((6-(5-(((6-Ethylpyrimidin-4-yl)oxy)methyl)-1-methyl-1H-1,2,3-triazol-4-yl)-2-methylpyridin-3-yl)oxy)octahydropentalene-1-carboxylic acid]",0.0358 µM
9,"COCc1ccnc(OCc2c(-c3ccc(OC4CC5CCC(F)(C(=O)O)C5C4)c(C)n3)nnn2C)n1 (single isomer, unassigned) [Compound 5-P1, 1-Fluoro-5-((6-(5-(((4-(methoxymethyl)pyrimidin-2-yl)oxy)methyl)-1-methyl-1H-1,2,3-triazol-4-yl)-2-methylpyridin-3-yl)oxy)octahydropentalene-1-carboxylic acid]",0.0156 µM
10,"COCc1ccnc(OCc2c(-c3ccc(OC4CC5CCC(F)(C(=O)O)C5C4)c(C)n3)nnn2C)n1 (single isomer, unassigned) [Compound 5-P2, 1-Fluoro-5-((6-(5-(((4-(methoxymethyl)pyrimidin-2-yl)oxy)methyl)-1-methyl-1H-1,2,3-triazol-4-yl)-2-methylpyridin-3-yl)oxy)octahydropentalene-1-carboxylic acid]",0.917 µM
11,"Cc1nc(-c2nnn(C)c2COc2nccc(O[C@@H]3CCOC3)n2)ccc1OC1CC2CCC(C(=O)O)C2C1 (single isomer, unassigned) [Compound 8-P1]",0.028 µM
12,"Cc1nc(-c2nnn(C)c2COc2nccc(O[C@@H]3CCOC3)n2)ccc1OC1CC2CCC(C(=O)O)C2C1 (single isomer, unassigned) [Compound 8-P2]",0.502 µM
13,"Cc1nc(-c2nnn(C)c2COc2nccc(O[C@H]3CCOC3)n2)ccc1OC1CC2CCC(C(=O)O)C2C1 (single isomer, unassigned) [Compound 9-P1]",0.0334 µM
14,"Cc1nc(-c2nnn(C)c2COc2nccc(O[C@H]3CCOC3)n2)ccc1OC1CC2CCC(C(=O)O)C2C1 (single isomer, unassigned) [Compound 9-P2]",0.853 µM
15,"Cc1nc(-c2nnn(C)c2COc2nccc(C(C)(C)O)n2)ccc1OC1CC2CCC(C(=O)O)C2C1 (single isomer, unassigned) [Compound 10-P1, 5-((6-(5-(((4-(2-Hydroxypropan-2-yl)pyrimidin-2-yl)oxy)methyl)-1-methyl-1H-1,2,3-triazol-4-yl)-2-methylpyridin-3-yl)oxy)octahydropentalene-1-carboxylic acid]",0.0887 µM
16,"Cc1nc(-c2nnn(C)c2COc2nccc(C(C)(C)O)n2)ccc1OC1CC2CCC(C(=O)O)C2C1 (single isomer, unassigned) [Compound 10-P2, 5-((6-(5-(((4-(2-Hydroxypropan-2-yl)pyrimidin-2-yl)oxy)methyl)-1-methyl-1H-1,2,3-triazol-4-yl)-2-methylpyridin-3-yl)oxy)octahydropentalene-1-carboxylic acid]",1.86 µM
17,"COc1ccnc(OCc2c(-c3ccc(OC4CC5CCC(C(=O)O)C5C4)c(C)n3)nnn2C)n1 (single isomer, unassigned) [Compound 11-P1, 5-((6-(5-(((4-Methoxypyrimidin-2-yl)oxy)methyl)-1-methyl-1H-1,2,3-triazol-4-yl)-2-methylpyridin-3-yl)oxy)octahydropentalene-1-carboxylic acid]",> 10 µM
18,"COc1ccnc(OCc2c(-c3ccc(OC4CC5CCC(C(=O)O)C5C4)c(C)n3)nnn2C)n1 (single isomer, unassigned) [Compound 11-P2, 5-((6-(5-(((4-Methoxypyrimidin-2-yl)oxy)methyl)-1-methyl-1H-1,2,3-triazol-4-yl)-2-methylpyridin-3-yl)oxy)octahydropentalene-1-carboxylic acid]",0.0506 µM
19,"CCOCc1ccnc(OCc2c(-c3ccc(OC4CC5CCC(C(=O)O)C5C4)c(C)n3)nnn2C)n1 (single isomer, unassigned) [Compound 13-P1, 5-((6-(5-(((4-(Ethoxymethyl)pyrimidin-2-yl)oxy)methyl)-1-methyl-1H-1,2,3-triazol-4-yl)-2-methylpyridin-3-yl)oxy)octahydropentalene-1-carboxylic acid]",1.09 µM
20,"CCOCc1ccnc(OCc2c(-c3ccc(OC4CC5CCC(C(=O)O)C5C4)c(C)n3)nnn2C)n1 (single isomer, unassigned) [Compound 13-P2, 5-((6-(5-(((4-(Ethoxymethyl)pyrimidin-2-yl)oxy)methyl)-1-methyl-1H-1,2,3-triazol-4-yl)-2-methylpyridin-3-yl)oxy)octahydropentalene-1-carboxylic acid]",0.0279 µM
